Literature values as cited in patent US10781471B2, “NRAS related cancer therapy” (Ruijin Hospital Affiliated to Shanghai Jiao Tong University …, priority 2014, dated 2020).

Test system: acute lymphoblastic leukemia (ALL)
Conditions: methotrexate 3.3 mg/m^2 in combination with 60 mg/m^2 of prednisone, given daily; induction in ALL patients

For `CN(Cc1cnc2nc(N)nc(N)c2n1)c1ccc(C(=O)N[C@@H](CCC(=O)O)C(=O)O)cc1` [methotrexate, Methotrexate], which “period within which remission was usually produced” value is on record?
Its value is 4 to 6 weeks.

What about the “remissions, share of patients treated” value of the same molecule?
The value was 50%.
